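Grown in 96-well plates, cells were treated for 48 hours with each compound at five concentrations. Insufficient inhibition: endpoint recorded as highest concentration tested. Abbreviation: GI50, concentration required for 50% inhibition of growth. At the TGI there is no net growth.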
Tests used:
Assay in all cases: growth of human tumour cells (NCI), 48 h
[1] = system: NCI/ADR-RES ovarian
[2] = system: NCI-H226 lung
[3] = system: HS 578T breast
[4] = system: 786-0 renal
[5] = system: KM12 colon
[6] = system: K-562 leukemia
[7] = system: SW-620 colon
[8] = system: HOP-92 NSCLC
[9] = system: OVCAR-3 ovarian
[10] = system: DU-145 prostate
[11] = system: NCI-H460 lung
[12] = system: HT29 colon
[13] = system: MDA-MB-231 breast
[14] = system: CCRF-CEM leukemia
[15] = system: MALME-3M melanoma
[16] = system: SNB-75 CNS
[17] = system: A498 renal
[18] = system: RXF 393 renal
[19] = system: NCI-H23 lung
[20] = system: HOP-62 NSCLC
[21] = system: NCI-H522 lung
[22] = system: HCC-2998 colon
[23] = system: SK-MEL-28 melanoma
[24] = system: SF-539 CNS
[25] = system: OVCAR-4 ovarian
[26] = system: PC-3 prostate
[27] = system: UACC-257 melanoma
[28] = system: RPMI-8226 leukemia
[29] = system: A549 NSCLC
[30] = system: U251 CNS
[31] = system: OVCAR-5 ovarian
[32] = system: SR leukemia
[33] = system: ACHN renal
[34] = system: CAKI-1 renal
[35] = system: MDA-MB-435
[36] = system: M14 melanoma
[37] = system: BT-549 breast
[38] = system: SK-MEL-5 melanoma
[39] = system: T-47D breast
[40] = system: MOLT-4 leukemia
[41] = system: SK-OV-3 ovarian
[42] = system: TK-10 renal
[43] = system: SF-295 CNS
[44] = system: OVCAR-8 ovarian
[45] = system: HL-60(TB) leukemia
[46] = system: LOX IMVI melanoma
[47] = system: HCT-15 colon
[48] = system: SNB-19 CNS
[49] = system: SF-268 CNS
[50] = system: MCF7 breast
[51] = system: IGROV1 ovarian
[52] = system: COLO 205 colon
[53] = system: SK-MEL-2 melanoma
[54] = system: EKVX NSCLC
[55] = system: UACC-62 melanoma
[56] = system: HCT-116 colon
[57] = system: SN12C renal
[58] = system: UO-31 renal

## COc1cc2c(cc1OCCCCCN1CCN(CCCCCOc3cc4c(cc3OC)C(=O)C3CCC[C@H]3C=N4)CC1)N=C[C@@H]1CCCC1C2=O (some centres undefined)
[1]
  GI50: > 100 µM
  TGI: > 100 µM
[2]
  GI50: 4.8 µM
  TGI: > 74.3 µM
[3]
  GI50: 5.63 µM
  TGI: > 68.7 µM
[4]
  GI50: 1.51 µM
  TGI: 4.64 µM
[5]
  GI50: 13.9 µM
  TGI: > 100 µM
[6]
  GI50: 6.51 µM
  TGI: 28.4 µM
[7]
  GI50: 2.51 µM
  TGI: 46.6 µM
[8]
  GI50: 3.22 µM
  TGI: > 42.6 µM
[9]
  GI50: 10.1 µM
  TGI: > 93.4 µM
[10]
  GI50: 12.9 µM
  TGI: > 100 µM
[11]
  GI50: 3.38 µM
  TGI: > 94.2 µM
[12]
  GI50: 9.47 µM
  TGI: > 100 µM
[13]
  GI50: 3.84 µM
  TGI: > 100 µM
[14]
  GI50: 3.06 µM
  TGI: > 48.7 µM
[15]
  GI50: 23 µM
  TGI: 47.7 µM
[16]
  GI50: 16.1 µM
  TGI: > 94.4 µM
[17]
  GI50: 2.07 µM
  TGI: 5.48 µM
[18]
  GI50: 2.23 µM
  TGI: 7.11 µM
[19]
  GI50: 3.72 µM
  TGI: > 21.1 µM
[20]
  GI50: > 100 µM
  TGI: > 100 µM
[21]
  GI50: 1.76 µM
  TGI: > 100 µM
[22]
  GI50: 2.18 µM
  TGI: 6.02 µM
[23]
  GI50: 19.4 µM
  TGI: > 100 µM
[24]
  GI50: 9.82 µM
  TGI: > 79 µM
[25]
  GI50: 42 µM
  TGI: > 100 µM
[26]
  GI50: 3.16 µM
  TGI: > 100 µM
[27]
  GI50: 9.73 µM
  TGI: > 46 µM
[28]
  GI50: 1.84 µM
  TGI: 11.9 µM
[29]
  GI50: 10.7 µM
  TGI: > 51.8 µM
[30]
  GI50: 3.74 µM
  TGI: > 100 µM
[31]
  GI50: 5.52 µM
  TGI: > 54.1 µM
[32]
  GI50: 2.97 µM
  TGI: 39.6 µM
[33]
  GI50: 18.9 µM
  TGI: > 100 µM
[34]
  GI50: 27.5 µM
  TGI: > 81.4 µM
[35]
  GI50: 5.81 µM
  TGI: 39.9 µM
[36]
  GI50: 17.5 µM
  TGI: 80.9 µM
[37]
  GI50: 10.9 µM
  TGI: > 86.8 µM
[38]
  GI50: 3.34 µM
  TGI: 21.6 µM
[39]
  GI50: 6.89 µM
  TGI: > 100 µM
[40]
  GI50: 2.55 µM
  TGI: 7 µM
[41]
  GI50: 43.2 µM
  TGI: > 100 µM
[42]
  GI50: 5.05 µM
  TGI: 14.6 µM
[43]
  GI50: 6.19 µM
  TGI: > 100 µM
[44]
  GI50: 7.89 µM
  TGI: > 37 µM
[45]
  GI50: 2.83 µM
  TGI: 7.15 µM
[46]
  GI50: 3.07 µM
  TGI: > 100 µM
[47]
  GI50: 52.9 µM
  TGI: > 100 µM
[48]
  GI50: > 39.4 µM
  TGI: > 100 µM
[49]
  GI50: 3.51 µM
  TGI: > 100 µM
[50]
  GI50: 2.72 µM
  TGI: > 100 µM
[51]
  GI50: 3.88 µM
  TGI: > 25 µM
[52]
  GI50: 2.67 µM
  TGI: 11.3 µM
[53]
  GI50: 2.2 µM
  TGI: 5.26 µM
[54]
  GI50: 41.3 µM
  TGI: > 100 µM
[55]
  GI50: 2.35 µM
  TGI: 7.87 µM

## NC(N)=NCCN1CCCCCc2ccccc21
[1]
  TGI: > 10 µM
[2]
  TGI: > 10 µM
[56]
  TGI: > 10 µM
[3]
  TGI: > 10 µM
[4]
  TGI: > 10 µM
[5]
  TGI: > 10 µM
[6]
  TGI: > 10 µM
[7]
  TGI: > 10 µM
[8]
  TGI: > 10 µM
[9]
  TGI: > 10 µM
[10]
  TGI: > 10 µM
[11]
  TGI: > 10 µM
[12]
  TGI: > 10 µM
[13]
  TGI: > 10 µM
[14]
  TGI: > 10 µM
[15]
  TGI: > 10 µM
[16]
  TGI: > 10 µM
[17]
  TGI: > 10 µM
[18]
  TGI: > 10 µM
[19]
  TGI: > 10 µM
[20]
  TGI: > 10 µM
[21]
  TGI: > 10 µM
[22]
  TGI: > 10 µM
[23]
  TGI: > 10 µM
[24]
  TGI: > 10 µM
[25]
  TGI: > 10 µM
[26]
  TGI: > 10 µM
[27]
  TGI: > 10 µM
[28]
  TGI: > 10 µM
[29]
  TGI: > 10 µM
[30]
  TGI: > 10 µM
[31]
  TGI: > 10 µM
[32]
  TGI: > 10 µM
[33]
  TGI: > 10 µM
[34]
  TGI: > 10 µM
[35]
  TGI: > 10 µM
[36]
  TGI: > 10 µM
[37]
  TGI: > 10 µM
[38]
  TGI: > 10 µM
[39]
  TGI: > 10 µM
[40]
  TGI: > 10 µM
[41]
  TGI: > 10 µM
[42]
  TGI: > 10 µM
[43]
  TGI: > 10 µM
[44]
  TGI: > 10 µM
[45]
  TGI: > 10 µM
[46]
  TGI: > 10 µM
[47]
  TGI: > 10 µM
[48]
  TGI: > 10 µM
[49]
  TGI: > 10 µM
[50]
  TGI: > 10 µM
[57]
  TGI: > 10 µM
[51]
  TGI: > 10 µM
[52]
  TGI: > 10 µM
[53]
  TGI: > 10 µM
[54]
  TGI: > 10 µM
[55]
  TGI: > 10 µM

## COC(=O)c1ccc(C2SC(C)C(=O)N2NC(=O)C(O)c2ccccc2)cc1 (centres undefined)
[1]
  GI50: > 100 µM
  TGI: > 100 µM
[2]
  GI50: > 100 µM
  TGI: > 100 µM
[56]
  GI50: > 100 µM
  TGI: > 100 µM
[3]
  GI50: > 100 µM
  TGI: > 100 µM
[4]
  GI50: > 100 µM
  TGI: > 100 µM
[5]
  GI50: > 100 µM
  TGI: > 100 µM
[6]
  GI50: > 100 µM
  TGI: > 100 µM
[7]
  GI50: > 100 µM
  TGI: > 100 µM
[8]
  GI50: > 100 µM
  TGI: > 100 µM
[9]
  GI50: > 100 µM
  TGI: > 100 µM
[10]
  GI50: > 100 µM
  TGI: > 100 µM
[11]
  GI50: > 100 µM
  TGI: > 100 µM
[12]
  GI50: > 100 µM
  TGI: > 100 µM
[13]
  GI50: > 100 µM
  TGI: > 100 µM
[14]
  GI50: > 100 µM
  TGI: > 100 µM
[16]
  GI50: > 100 µM
  TGI: > 100 µM
[17]
  GI50: > 100 µM
  TGI: > 100 µM
[18]
  GI50: > 100 µM
  TGI: > 100 µM
[20]
  GI50: > 100 µM
  TGI: > 100 µM
[21]
  GI50: > 100 µM
  TGI: > 100 µM
[22]
  GI50: > 100 µM
  TGI: > 100 µM
[23]
  GI50: > 100 µM
  TGI: > 100 µM
[24]
  GI50: > 100 µM
  TGI: > 100 µM
[25]
  GI50: > 100 µM
  TGI: > 100 µM
[26]
  GI50: > 100 µM
  TGI: > 100 µM
[27]
  GI50: > 100 µM
  TGI: > 100 µM
[28]
  GI50: > 100 µM
  TGI: > 100 µM
[29]
  GI50: > 100 µM
  TGI: > 100 µM
[30]
  GI50: > 100 µM
  TGI: > 100 µM
[31]
  GI50: > 100 µM
  TGI: > 100 µM
[32]
  GI50: > 100 µM
  TGI: > 100 µM
[33]
  GI50: > 100 µM
  TGI: > 100 µM
[58]
  GI50: > 100 µM
  TGI: > 100 µM
[34]
  GI50: > 100 µM
  TGI: > 100 µM
[35]
  GI50: > 100 µM
  TGI: > 100 µM
[36]
  GI50: > 100 µM
  TGI: > 100 µM
[37]
  GI50: > 100 µM
  TGI: > 100 µM
[38]
  GI50: > 100 µM
  TGI: > 100 µM
[39]
  GI50: > 100 µM
  TGI: > 100 µM
[40]
  GI50: > 100 µM
  TGI: > 100 µM
[41]
  GI50: > 100 µM
  TGI: > 100 µM
[42]
  GI50: > 100 µM
  TGI: > 100 µM
[43]
  GI50: > 100 µM
  TGI: > 100 µM
[44]
  GI50: > 100 µM
  TGI: > 100 µM
[45]
  GI50: > 100 µM
  TGI: > 100 µM
[46]
  GI50: > 100 µM
  TGI: > 100 µM
[47]
  GI50: > 100 µM
  TGI: > 100 µM
[48]
  GI50: > 100 µM
  TGI: > 100 µM
[49]
  GI50: > 100 µM
  TGI: > 100 µM
[50]
  GI50: > 100 µM
  TGI: > 100 µM
[57]
  GI50: > 100 µM
  TGI: > 100 µM
[51]
  GI50: > 100 µM
  TGI: > 100 µM
[52]
  GI50: > 100 µM
  TGI: > 100 µM
[53]
  GI50: > 100 µM
  TGI: > 100 µM
[54]
  GI50: > 100 µM
  TGI: > 100 µM
[55]
  GI50: > 100 µM
  TGI: > 100 µM

— PubChem BioAssay (NCI)
